# US20250361230A1, “LATS Inhibitors and Uses Thereof” (The USA, as Represented by the Secretary, Dept. of Heath …, priority 2022, published 2025)
# pIC50: −log10 of the molar value.
# Assays:
# Type in all cases: biochemical
# AKT = AKT (Homo sapiens, UniProt P31749); experiment: RBC HotSpot kinase assay (33P-ATP, P81 filter-binding), AKT; conditions: Table 28, biochemical kinase assay; read-out: AKT IC50
# Summary of the method: (§1)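 Substrate in fresh buffer receives cofactors, then kinase, then compound in DMSO for a 20 min room-temperature preincubation. Reactions start with 33P-ATP and run 2 h; phosphorylation is read by P81 filter binding, and IC50 comes from a 10-point curve.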
# LATS1 = biological target: T1, LATS1 (Homo sapiens, UniProt O95835); experiment: RBC HotSpot kinase assay (33P-ATP, P81 filter-binding), LATS1; conditions: Table 28, biochemical kinase assay; read-out: LATS1 IC50
# T1 sequence (O95835 1-1130): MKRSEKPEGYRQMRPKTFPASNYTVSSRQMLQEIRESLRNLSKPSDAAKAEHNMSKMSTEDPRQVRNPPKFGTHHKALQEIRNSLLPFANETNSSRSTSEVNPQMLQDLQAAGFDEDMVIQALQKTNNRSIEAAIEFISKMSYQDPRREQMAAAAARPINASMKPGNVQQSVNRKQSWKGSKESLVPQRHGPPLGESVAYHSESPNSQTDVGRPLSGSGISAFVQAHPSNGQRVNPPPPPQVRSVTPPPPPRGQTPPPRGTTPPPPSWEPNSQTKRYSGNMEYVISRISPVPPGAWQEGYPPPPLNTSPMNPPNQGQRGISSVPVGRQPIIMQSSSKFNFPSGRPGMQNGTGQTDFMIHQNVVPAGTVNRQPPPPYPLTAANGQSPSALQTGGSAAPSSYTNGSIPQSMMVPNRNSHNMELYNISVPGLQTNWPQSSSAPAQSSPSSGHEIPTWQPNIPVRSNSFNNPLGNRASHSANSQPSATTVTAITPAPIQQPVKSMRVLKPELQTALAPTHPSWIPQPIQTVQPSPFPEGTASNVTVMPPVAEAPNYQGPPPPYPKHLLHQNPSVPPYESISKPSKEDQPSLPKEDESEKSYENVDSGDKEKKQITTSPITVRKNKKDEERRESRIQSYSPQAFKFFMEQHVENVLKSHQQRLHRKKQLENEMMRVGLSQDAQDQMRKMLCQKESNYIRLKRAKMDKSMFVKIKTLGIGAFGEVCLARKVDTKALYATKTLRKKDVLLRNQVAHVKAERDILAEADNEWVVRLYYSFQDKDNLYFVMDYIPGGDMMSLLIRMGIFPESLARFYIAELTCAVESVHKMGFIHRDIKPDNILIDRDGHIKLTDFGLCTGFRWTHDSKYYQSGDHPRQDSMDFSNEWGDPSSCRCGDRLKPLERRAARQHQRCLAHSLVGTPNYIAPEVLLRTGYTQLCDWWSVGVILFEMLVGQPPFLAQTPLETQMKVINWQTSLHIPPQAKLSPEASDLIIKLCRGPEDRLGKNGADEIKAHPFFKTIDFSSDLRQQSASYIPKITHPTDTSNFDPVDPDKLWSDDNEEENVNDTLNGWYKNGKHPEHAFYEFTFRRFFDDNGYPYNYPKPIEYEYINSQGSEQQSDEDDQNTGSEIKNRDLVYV
# Summary of the method: as §1
# LATS2 = biological target: T2, LATS2 (Homo sapiens, UniProt Q9NRM7); experiment: RBC HotSpot kinase assay (33P-ATP, P81 filter-binding), LATS2; conditions: Table 28, biochemical kinase assay; read-out: LATS2 IC50
# T2 sequence (Q9NRM7 1-1088): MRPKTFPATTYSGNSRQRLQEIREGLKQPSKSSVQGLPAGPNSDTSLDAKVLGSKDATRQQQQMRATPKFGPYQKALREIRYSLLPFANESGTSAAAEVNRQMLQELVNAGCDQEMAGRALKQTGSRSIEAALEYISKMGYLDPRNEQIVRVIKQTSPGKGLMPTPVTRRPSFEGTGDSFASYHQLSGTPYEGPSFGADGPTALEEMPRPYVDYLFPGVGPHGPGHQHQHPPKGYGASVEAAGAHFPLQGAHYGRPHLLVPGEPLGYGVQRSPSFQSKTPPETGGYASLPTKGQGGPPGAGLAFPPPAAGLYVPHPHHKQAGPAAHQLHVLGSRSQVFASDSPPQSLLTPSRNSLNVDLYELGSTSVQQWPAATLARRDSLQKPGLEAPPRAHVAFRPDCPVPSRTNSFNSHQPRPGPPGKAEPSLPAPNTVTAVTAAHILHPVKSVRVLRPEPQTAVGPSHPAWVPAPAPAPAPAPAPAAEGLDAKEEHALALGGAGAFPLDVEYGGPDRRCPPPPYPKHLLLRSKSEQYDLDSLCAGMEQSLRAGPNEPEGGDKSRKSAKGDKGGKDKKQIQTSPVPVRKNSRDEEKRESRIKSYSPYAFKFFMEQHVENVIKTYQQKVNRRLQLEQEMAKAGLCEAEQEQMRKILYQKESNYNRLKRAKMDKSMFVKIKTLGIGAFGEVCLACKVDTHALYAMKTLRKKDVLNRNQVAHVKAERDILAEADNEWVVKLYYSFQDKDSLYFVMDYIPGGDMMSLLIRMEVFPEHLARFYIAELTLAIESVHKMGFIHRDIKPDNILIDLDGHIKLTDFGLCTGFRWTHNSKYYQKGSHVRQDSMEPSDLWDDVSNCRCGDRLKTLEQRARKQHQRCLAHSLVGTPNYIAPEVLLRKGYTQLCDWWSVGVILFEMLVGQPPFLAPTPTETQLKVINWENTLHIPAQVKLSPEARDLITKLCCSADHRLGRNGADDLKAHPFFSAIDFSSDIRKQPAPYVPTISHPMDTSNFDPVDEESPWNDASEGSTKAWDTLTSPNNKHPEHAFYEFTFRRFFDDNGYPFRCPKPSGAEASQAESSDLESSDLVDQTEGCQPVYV
# Summary of the method: as §1
# AKT, sequence (P31749 whole entry): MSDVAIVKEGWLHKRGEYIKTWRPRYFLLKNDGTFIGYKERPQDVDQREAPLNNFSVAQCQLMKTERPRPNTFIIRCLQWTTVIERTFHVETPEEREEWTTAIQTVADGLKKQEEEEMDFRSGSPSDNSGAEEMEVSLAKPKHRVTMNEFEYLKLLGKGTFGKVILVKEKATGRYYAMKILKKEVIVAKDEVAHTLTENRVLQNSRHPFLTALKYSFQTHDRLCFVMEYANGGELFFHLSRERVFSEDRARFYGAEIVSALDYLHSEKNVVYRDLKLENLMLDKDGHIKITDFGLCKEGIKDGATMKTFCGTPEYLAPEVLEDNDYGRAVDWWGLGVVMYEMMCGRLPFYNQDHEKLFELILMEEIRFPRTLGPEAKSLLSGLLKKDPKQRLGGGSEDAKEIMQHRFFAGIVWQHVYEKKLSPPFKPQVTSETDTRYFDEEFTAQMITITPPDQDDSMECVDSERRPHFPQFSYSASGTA
pIC50 (AKT),pIC50 (LATS1),pIC50 (LATS2),Compound
6.29,7.85,7.89,"c1cc(-c2ccc3c(c2)CNC3)c2cc[nH]c2n1 [Compound 265, 4-(isoindolin-5-yl)-1H-pyrrolo[2,3-b]pyridine]"
6.21,7.62,7.62,"COc1cc(-c2ccnc3[nH]ccc23)ccc1CN [Compound 268, (2-methoxy-4-(1H-pyrrolo[2,3-b]pyridin-4-yl)phenyl) methanamine]"
6.10,7.40,7.44,"CCOc1cc(-c2ccnc3[nH]ccc23)ccc1CN [Compound 269, (2-ethoxy-4-(1H-pyrrolo[2,3-b]pyridin-4-yl)phenyl) methanamine]"
6.06,7.55,7.47,"NCc1ccc(-c2ccnc3[nH]ccc23)cc1F [Compound 270, (2-fluoro-4-(1H-pyrrolo[2,3-b]pyridin-4-yl)phenyl) methanamine]"
5.51,6.35,6.57,"NCc1ccc(-c2c(Cl)cnc3[nH]ccc23)cc1 [Compound 272, (4-(5-chloro-1H-pyrrolo[2,3-b]pyridin-4-yl)phenyl) methanamine]"
5.86,7.05,6.83,"NCc1ccc(-c2c(F)cnc3[nH]ccc23)cc1 [Compound 273, (4-(5-fluoro-1H-pyrrolo[2,3-b]pyridin-4-yl)phenyl) methanamine]"
5.61,7.44,7.22,"c1ccc(CNCc2ccc(-c3ccnc4[nH]ccc34)cc2)cc1 [Compound 274, N-(4-(1H-pyrrolo[2,3-b]pyridin-4-yl)benzyl)-1-phenylmethanamine]"
5.66,7.20,7.00,"c1cc(-c2ccc(CN3CCCC3)cc2)c2cc[nH]c2n1 [Compound 277, 4-(4-(pyrrolidin-1-ylmethyl)phenyl)-1H-pyrrolo[2,3-b]pyridine]"
6.49,7.77,7.48,"c1cc(-c2ccc(C3CCCN3)cc2)c2cc[nH]c2n1 (stereo not drawn) [Compound 278, 4-(4-(pyrrolidin-2-yl)phenyl)-1H-pyrrolo[2,3-b]pyridine]"
5.97,8.01,7.53,"Fc1ccc(CNCc2ccc(-c3ccnc4[nH]ccc34)cc2)cc1 [Compound 279, N-(4-(1H-pyrrolo[2,3-b]pyridin-4-yl)benzyl)-1-(4-fluorophenyl) methanamine]"
6.07,7.97,7.59,"Fc1cccc(CNCc2ccc(-c3ccnc4[nH]ccc34)cc2)c1 [Compound 280, N-(4-(1H-pyrrolo[2,3-b]pyridin-4-yl)benzyl)-1-(3-fluorophenyl) methanamine]"
5.33,7.08,6.77,"CC(C)(O)C#Cc1cc(-c2ccnc3[nH]ccc23)ccc1CNCc1ccc(F)cc1 [Compound 281, 4-(2-(((4-fluorobenzyl)amino)methyl)-5-(1H-pyrrolo[2,3-b]pyridin-4-yl)phenyl)-2-methylbut-3-yn-2-ol]"
5.42,7.50,7.23,"Fc1ccc(CNCc2ccc(-c3ccnc4[nH]ccc34)cc2Cl)cc1 [Compound 282, N-(2-chloro-4-(1H-pyrrolo[2,3-b]pyridin-4-yl)benzyl)-1-(4-fluorophenyl) methanamine]"
6.14,8.10,7.70,"NCc1ccc(-c2ccnc3[nH]ccc23)cc1Cl [Compound 283, (2-chloro-4-(1H-pyrrolo[2,3-b]pyridin-4-yl)phenyl) methanamine]"
5.70,6.78,6.72,"FC(F)(F)Oc1cccc(CNCc2ccc(-c3ccnc4[nH]ccc34)cc2)c1 [Compound 285, N-(4-(1H-pyrrolo[2,3-b]pyridin-4-yl)benzyl)-1-(3-(trifluoromethoxy)phenyl) methanamine]"
5.47,5.30,5.90,"NCc1ccc(-c2ccnc3[nH]ccc23)c(C(F)(F)F)c1 [Compound 286, (4-(1H-pyrrolo[2,3-b]pyridin-4-yl)-3-(trifluoromethyl)phenyl) methanamine]"
6.55,8.49,8.80,"COC(=O)c1c[nH]c2nccc(-c3ccc([C@@]4(O)[C@H](C)CNC[C@@H]4C)c(C)c3)c12 [Compound 300, methyl 4-(4-((3S,4s,5R)-4-hydroxy-3,5-dimethylpiperidin-4-yl)-3-methylphenyl)-1H-pyrrolo[2,3-b]pyridine-3-carboxylate]"
7.40,8.06,8.31,"CCc1cc(-c2ccnc3[nH]cc(F)c23)ccc1[C@@]1(O)[C@H](C)CNC[C@@H]1C [Compound 302, (3S,4s,5R)-4-(2-ethyl-4-(3-fluoro-1H-pyrrolo[2,3-b]pyridin-4-yl)phenyl)-3,5-dimethylpiperidin-4-ol]"
6.61,8.32,8.48,"Cc1cc(-c2ccnc3[nH]cc(Cl)c23)cc(F)c1[C@@]1(O)[C@H](C)CNC[C@@H]1C [Compound 303, (3S,4s,5R)-4-(4-(3-chloro-1H-pyrrolo[2,3-b]pyridin-4-yl)-2-fluoro-6-methylphenyl)-3,5-dimethylpiperidin-4-ol]"
7.51,7.94,8.27,"CCc1cc(-c2ccnc3[nH]cc(F)c23)ccc1[C@@]1(O)[C@H](C)CN(C2CCS(=O)(=O)CC2)C[C@@H]1C [Compound 306, 4-((3S,4s,5R)-4-(2-ethyl-4-(3-fluoro-1H-pyrrolo[2,3-b]pyridin-4-yl)phenyl)-4-hydroxy-3,5-dimethylpiperidin-1-yl)tetrahydro-2H-thiopyran 1,1-dioxide]"
6.69,8.38,8.51,"Cc1cc(-c2ccnc3[nH]cc(Cl)c23)cc(F)c1[C@@]1(O)[C@H](C)CN(C2CCS(=O)(=O)CC2)C[C@@H]1C [Compound 307, 4-((3S,4s,5R)-4-(4-(3-chloro-1H-pyrrolo[2,3-b]pyridin-4-yl)-2-fluoro-6-methylphenyl)-4-hydroxy-3,5-dimethylpiperidin-1-yl)tetrahydro-2H-thiopyran 1,1-dioxide]"
